Reference: patent US11207312B2, “Metallo-beta-lactamase inhibitors and methods of use thereof” (priority 2017, dated 2021)

Legend:
VIM-2 = VIM-2 (Escherichia coli, UniProt Q5U7L7); assay: biochemical; conditions: CCF2-FA fluorescence assay; read-out: VIM2 IC50
[1] = tested on: P. aeruginosa MB9798 (efflux+, IMP-1 plasmid); conditions: for MB9798 MITC95 P. aeruginosa uM Efflux WT: efflux + (MB9798) strain, imipenem at 2 μg/mL, in the presence of a class A, C, D serine β-lactamase inhibitor closely related to relebactam; for Efflux ratio: fold difference between efflux+ (MB9798) and efflux− (MB9799) strains
How it was run: (§1)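 PAO1-derived isogenic pair (oprD+, inducible AmpC), efflux+ MB5919 or efflux− MB5890 parent, carrying an electroporated IMP-1 plasmid from a clinical isolate. Microbroth MIC with fixed imipenem and/or ceftazidime (usually CLSI breakpoint) plus fixed class A/C inhibitor; MBL inhibitor serially titrated, concentration restoring susceptibility recorded.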

IMP-1 = IMP-1 (Serratia marcescens, UniProt P52699); assay: biochemical; conditions: CCF2-FA fluorescence assay, 2 hours at 25° C.; read-out: IMP1 IC50
How it was run: (§2)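 Buffer 100 mM KH2PO4 pH 7, 0.005% Tween-20, 10 μM ZnSO4. NDM-1 1 pM, IMP-1 2 pM, VIM-1 30 pM final; CCF2-FA 1.25 μM. Cpd 20–0.00063 μM, 2 h, 25° C. Ex 405/Em 460 nm; IC50 via 4-parameter curve.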

VIM-1 = VIM-1 (Pseudomonas aeruginosa (strain ATCC 15692 / DSM 22644 / CIP 104116 / JCM 14847 / LMG 12228 / 1C / PRS 101 / PAO1), UniProt A0A0F7KYQ8); assay: biochemical; conditions: CCF2-FA fluorescence assay, 2 hours at 25° C.; read-out: VIM1 IC50
How it was run: as §2

[2] = tested on: P. aeruginosa MB9799 (efflux-, IMP-1 plasmid); type: cell-based, Pseudomonas aeruginosa; conditions: efflux − (MB9799) strain; imipenem at 2 μg/mL; in the presence of a class A, C, D serine β-lactamase inhibitor closely related to relebactam
How it was run: as §1

[3] = tested on: Klebsiella pneumoniae expressing VIM-1 (IHMA599644); type: cell-based; conditions: with imipenem 1 μg/ml; 95% inhibition of bacterial growth
How it was run: (§3)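 Colonies from sheep-blood agar plates are resuspended in saline, then diluted 1:100 in 1.1× CAMHB. Bacteria receive imipenem (1 μg/ml) and test compound, then incubate 22–24 h at 35 °C. Potentiation is reported as MITC95 from absorbance.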

[4] = tested on: Escherichia coli expressing NDM-1 (CLB30016); type: cell-based; conditions: with imipenem 1 μg/ml; 95% inhibition of bacterial growth
How it was run: as §3

[5] = tested on: Serratia marcescens expressing IMP-1 (CL5741); type: cell-based; conditions: with imipenem 1 μg/ml; 95% inhibition of bacterial growth
How it was run: as §3

NDM-1 = NDM-1 (Klebsiella pneumoniae, UniProt C7C422); assay: biochemical; type: biochemical; conditions: CCF2-FA fluorescence assay, 2 hours at 25° C.
How it was run: as §2

NDM-1, sequence (C7C422 whole entry, looked up, species assumed): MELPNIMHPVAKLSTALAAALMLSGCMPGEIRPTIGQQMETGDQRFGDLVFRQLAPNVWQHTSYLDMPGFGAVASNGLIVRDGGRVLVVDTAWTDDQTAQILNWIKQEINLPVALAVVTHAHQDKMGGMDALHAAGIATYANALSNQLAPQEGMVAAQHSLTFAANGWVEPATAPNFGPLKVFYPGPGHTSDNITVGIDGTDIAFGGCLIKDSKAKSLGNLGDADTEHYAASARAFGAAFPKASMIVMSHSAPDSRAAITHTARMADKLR
IMP-1, sequence (P52699 whole entry, looked up, species assumed): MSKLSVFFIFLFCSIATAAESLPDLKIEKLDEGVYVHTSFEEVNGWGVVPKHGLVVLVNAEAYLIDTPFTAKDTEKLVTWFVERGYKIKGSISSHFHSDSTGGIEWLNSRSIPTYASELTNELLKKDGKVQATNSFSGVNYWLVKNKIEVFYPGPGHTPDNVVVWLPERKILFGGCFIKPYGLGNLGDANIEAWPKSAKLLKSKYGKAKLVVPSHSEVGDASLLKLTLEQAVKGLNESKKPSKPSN

SMILES | IC50 (VIM-2) | MB9798 MITC95 P. aeruginosa uM Efflux WT [1] | Efflux ratio [1] | IC50 (IMP-1) | IC50 (VIM-1) | MB9799 MITC95 P. aeruginosa uM Efflux Mutant [2] | IHMA599644 K. pneumoniae MITC95 VIM [3] | CLB30016 E. coli MITC95 NDM [4] | CL5741 S. marcescens MITC95 IMP [5] | IC50 (NDM-1)
NC[C@@H](O)CNS(=O)(=O)c1ccc(N[C@@H]2CCC[C@H]2N)c(-c2nn[nH]n2)c1S(N)(=O)=O [Example 179, N1-((R)-3-amino-2-hydroxypropyl)-4-(((1R,2R)-2-aminocyclopentyl)amino)-3-(2H-tetrazol-5-yl)benzene-1,2-disulfonamide] | 83.1 nM | 25.00 µM | 4.00 | 69.2 nM | 49.9 nM | 6.25 µM | 12.50 µM | 0.78 µM | 6.25 µM | 26.2 nM
NC[C@@H](O)CNS(=O)(=O)c1ccc(N2CCC(NCCO)CC2)c(-c2nn[nH]n2)c1S(N)(=O)=O [Example 142, (R)-N1-(3-amino-2-hydroxypropyl)-4-(4-((2-hydroxyethyl)amino)piperidin-1-yl)-3-(2H-tetrazol-5-yl)benzene-1,2-disulfonamide bis(2,2,2-trifluoroacetate)] | 9.26 nM | 0.78 µM | 1.00 | 5.95 nM | 0.42 nM | 0.78 µM | 1.56 µM | 0.39 µM | 0.78 µM | 7.59 nM
NS(=O)(=O)c1c(S(=O)(=O)N[C@@H]2CCNC2)ccc(N2CCNCC2)c1-c1nnn[nH]1 [Example 79, 4-piperazin-1-yl-N1-[(3R)-pyrrolidin-3-yl]-3-(1H-tetrazol-5-yl)benzene-1,2-disulfonamide] | 36.4 nM | 3.13 µM | 2.00 | 26.6 nM | 8.6 nM | 1.56 µM | 3.13 µM | 0.39 µM | 0.78 µM | 9.35 nM
NS(=O)(=O)c1c(S(=O)(=O)N[C@@H]2CCNC2)ccc(NC2CCOCC2)c1-c1nnn[nH]1 [Example 66, N1-[(3R)-pyrrolidin-3-yl]-4-(tetrahydro-2H-pyran-4-ylamino)-3-(1H-tetrazol-5-yl)benzene-1,2-disulfonamide] | 3.7 nM | 25.00 µM | 15.99 | 4.48 nM | 1.76 nM | 1.56 µM | 6.25 µM | 6.25 µM | 3.13 µM | 0.62 nM
COC1(CO)CCN(c2ccc(S(=O)(=O)NC[C@H](O)CN)c(S(N)(=O)=O)c2-c2nn[nH]n2)CC1 [Example 21, (R)-N^1-(3-amino-2-hydroxypropyl)-4-(4-(hydroxymethyl)-4-methoxypiperidin-1-yl)-3-(2H-tetrazol-5-yl)benzene-1,2-disulfonamide] | 2.7 nM | 3.13 µM | 1.00 | 0.56 nM | 1.13 nM | 3.13 µM | 12.50 µM | 12.50 µM | 6.25 µM | 0.41 nM
NC[C@@H](O)CNS(=O)(=O)c1ccc(N2CCC3(CCNC3)C2)c(-c2nn[nH]n2)c1S(N)(=O)=O (stereo partly shown) [Example 133, di-trifluoroacetic acid] | 57.9 nM | 3.13 µM | 2.00 | 24 nM | 2.07 nM | 1.56 µM | 0.78 µM | 0.78 µM | 1.56 µM | 12.7 nM
NS(=O)(=O)c1c(S(=O)(=O)N[C@@H]2CCNC2)ccc(N2CCN(CCO)CC2)c1-c1nnn[nH]1 [Example 102, 4-[4-(2-hydroxyethyl)piperazin-1-yl]-N1-[(3R)-pyrrolidin-3-yl]-3-(1H-tetrazol-5-yl)benzene-1,2-disulfonamide] | 7.94 nM | 3.13 µM | 2.00 | 2.07 nM | 3.06 nM | 1.56 µM | 3.13 µM | 0.20 µM | 0.20 µM | 1.35 nM
